From patent US7115574B2, “System and method for support legacy operating system booting in a legacy-free system” (priority 2001, dated 2006)
Values joined by “and” are separate entries in the source; they are usually repeats but may differ in a detail not shown here. Equal values may be shown once.

Experiments:
Format in all cases: cell-based
[1] = test system: N9 clone of murine microglial cells; test: TNF-α, IL-6 and NO2− production by LPS+IFN-γ activated microglia; conditions: for concentration most effective at inhibiting cytokine formation: LPS+IFN-γ stimulated microglia, 1-100 μM tested
Experimental: See Delgado, R., Carlin, A., Alraghi, L., Demitri, M., Meda, L., Galimberti, D., Pierluigi, B., Lipton, J. M., Catania, A., Melanocortin Peptides Inhibit Production of Proinflammatory Cytokines and Nitric Oxide by Activated Microglia, 63 J. of Leukocyte Biol. 740 (1998). […] The N9 clone of murine microglial cells was obtained by immortalization of embryonic brain cultures with the 3RV retrovirus carrying an activated v-myconcogene. N9 cells were cultured in T-75-cm^2 culture flasks (Coming, Cambridge, Mass.) and maintained at 37° C. in a humidified incubator under 5% CO2 atmosphere in RPMI 1640 supplemented with 2 mM L-glutamine, 50 U/mL penicillin G, 50 μg/mL streptomycin sulfate (GIBCO-BBL, Paisley, UK), and 10% heat-inactivated fetal bovine serum (FBS, Hyclone Lab, Inc., Logan, Utah) until experiments were performed. Cells were used between the first and the tenth passage.
Sub-confluent microglial cells were washed twice with phosphate-buffered saline (PBS) and incubated with trypsin 0.025% and ethylenediaminetetraacetate (EDTA) 0.02% without calcium and magnesium for 3 min. at 37° C. to detach the cells from the culture flask. Cells were then resuspended in medium and incubated in 24-well tissue-culture plates at a concentration of 2×10^5 cells/mL for 16 h in a humidified incubator (37° C., 5% CO2). Growth medium was removed and cell monolayers were stimulated with 10 ng/mL lipopolysaccharide (LPS, from Escherichia coli 055:B5, Sigma Chemical Co., St. Louis, Mo.) plus 1 U/ml, murine IFN-γ (Sigma). […] Although production of TNF-α and NO was reduced to even much lower concentrations of the peptides, concentrations in the micromolar range had the most profound and consistent inhibitory effects. […] Cell-free supernatants were harvested after 24 h incubation and assayed for TNF-α, IL-6 and NO2. Viability of cells was assessed by trypan blue exclusion for each experimental condition: it was consistently >98%. Dexamethasone (Sigma) and N-monomethyl-L-arginine (L-NMMA: 100 μM, Cayman Chemical, Ann Arbor, Mich.) were used as positive controls for TNF-α and NO inhibition, respectively. Tests were repeated in at least three independent experiments and assays were performed in triplicate.
TNF-α bioactivity was measured in supernatants of cell cultures by standard cytotoxicity assay using L929 cells and recombinant human TNF-α (Sigma) as standard. The detection limit of the bioassay was 20 pg/mL. IL-6 was measured using a commercial murine enzyme-linked immunosorbent assay (ELISA: RPN 2714, Amersham, Little Chalfont, UK).
NO is rapidly oxidized to nitrite in culture medium, and nitrite (NO2^−) concentration is an indicator of NO production. Cell-free culture supernatants were mixed with equal amounts of Griess reagent (1% sulfanilamide, 0.1% naphtylethylenediamide in 2.5% phosphoric acid) in wells of 96-well ELISA plates. Samples were incubated at room temperature for 10 min and absorbance was measured at 540 nm with the use of a microplate reader. Nitrite […] concentrations were calculated using a sodium nitrite standard curve.
Effects of melanocortin peptides on cytokine and NO production were evaluated by repeated measures analysis of variance followed by Dunnet's test for specific comparisons. Probability values less than 0.05 were considered significant.

[2] = test system: N9 clone of murine microglial cells; test: cAMP accumulation in N9 microglia; conditions: for cAMP accumulation: resting cells and cells co-incubated with LPS+IFN-γ; for concentration of strongest effect on cAMP accumulation: resting microglia, 1, 10, 50 μM tested
Experimental: cAMP accumulation in N9 cells was measured as previously described. […] Reactions were stopped after 3 min by aspirating supernatants, immediately adding 1 mL ethanol at −20° C. and freezing. cAMP content in the ethanol-soluble fraction was measured using an enzyme immunoassay kit (Amersham).

[3] = test system: C. albicans; test: cAMP content of C. albicans (EIA); conditions: 10^−6 M; for cAMP content in the yeast: 3 minutes, permeabilized C. albicans
Experimental: C. albicans (10^6/ml), permeabilized with toluene/ethanol, were incubated at 37° C. with continuous shaking in the presence of 10^−6 M α-MSH(1-13) (SEQ ID NO: 3), (11-13), (SEQ ID NO: 1), forskolin, an agent known to increase intracellular cAMP, or in medium alone. The reaction was stopped after 3 minutes by the addition of ice cold ethanol, cAMP was measured in duplicate using a commercial enzyme immunoassay (EIA) kit (Amersham, United Kingdom) after extraction via the liquid-phase method according to manufacturer's instructions. The effect of forskolin (10^−6 M) on C. albicans colony formation was determined using the same procedure as for α-MSH peptides.

[4] = test system: N9 clone of murine microglial cells; test: Northern blot of TNF-α and iNOS mRNA in activated microglia; conditions: peptide prior to LPS and IFN-γ
Experimental: Total cellular RNA was extracted from 10^6 adherent microglial cells plated in six-well tissue culture plates (Corning). Electrophoresis of RNA samples (10 μg/lane) was performed in 1% agarose/2.2 M formaldehyde gels and the gels subsequently blotted onto nylon filters by capillary action and baked for 2 h before prehybridization. The cDNA fragments encoding murine TNF-α and mouse macrophage iNOS were ^32P-labeled using the Ready-To-Go DNA Labeling Kit (Pharmacia, Uppsala, Sweden) before hybridization of nylon filters and autoradiography. Blots were subsequently rehybridized with human glyceraldehyde-3-phosphate dehydrogenase (G-3-PDH) cDNA probe as an internal control (Clontech Laboratories, Inc., Palo Alto, Calif.).

[5] = microglia stimulated with LPS+IFN-γ for 24 hr, micromolar concentrations

Row | Substance | concentration most effective at inhibiting cytokine formation [1] [µM] | cAMP accumulation [2] | concentration of strongest effect on cAMP accumulation [2] [µM] | increase in cAMP relative to equimolar forskolin [3] | cAMP content in the yeast [3] | transcription levels (mRNA) for TNF-α and iNOS [4] | reduction of production of IL-6 [1, 5] | reduction of production of NO2^− [1, 5] | reduction of production of TNF-α [1, 5] | cAMP accumulation in conjunction with LPS and IFN-γ ([2]; peptide 10 μM with LPS+IFN-γ, forskolin 100 μM as comparison)
1 | Ac-Lys-Pro-Val-NH2 [α-MSH(11-13)] | 1 | increased cAMP accumulation | 50 | same order of magnitude | enhanced cAMP content | decrease in transcription levels |  |  |  | 
2 | SYSMEHFRWGKPV [α-MSH(1-13)] | 10 | increased cAMP accumulation | 10 |  | enhanced cAMP content | decrease in transcription levels | 31% and 50% | 42% and 40% | 43% and 45% | more effective of the two
